Holding throughout (test): relative viability (nuclei count vs DMSO), 5 days (fraction); higher = more cells survive
Compound in the assay “Ispinesib + Crizotinib”: Cc1ccc(C(=O)N(CCCN)[C@@H](c2nc3cc(Cl)ccc3c(=O)n2Cc2ccccc2)C(C)C)cc1 [Ispinesib] + C[C@@H](Oc1cc(-c2cnn(C3CCNCC3)c2)cnc1N)c1c(Cl)ccc(F)c1Cl [Crizotinib] (partner 1 µM)
Put shortly:
(§1)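 Dosing by pin tool came one day after lung cancer cell lines were seeded in 1536-well plates, using either one drug or a fixed anchor-drug dose plus five library-drug doses (not always all listed) in √10 steps. After 5 days, nuclei were counted on 4× images. Relative viability is treated-well nuclei count divided by vehicle-well nuclei count, and values are medians of duplicate plates.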

Compound in the assay “Linsitinib + Crizotinib”: C[C@]1(O)C[C@@H](c2nc(-c3ccc4ccc(-c5ccccc5)nc4c3)c3c(N)nccn32)C1 [Linsitinib] + C[C@@H](Oc1cc(-c2cnn(C3CCNCC3)c2)cnc1N)c1c(Cl)ccc(F)c1Cl [Crizotinib] (partner 1 µM)
Put shortly:
as §1

Compound in the next assay: C[C@]1(O)C[C@@H](c2nc(-c3ccc4ccc(-c5ccccc5)nc4c3)c3c(N)nccn32)C1 [Linsitinib]
A digest of the protocol: (§2)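 On vehicle-anchored 1536-well plates, lung cancer cell lines held overnight at 37 °C were pinned with five library-drug doses (not always all listed) spaced by √10. With no medium change over 5 days, they were then fixed, permeabilised and Hoechst-stained in one step and imaged at 4×. MetaXpress counted nuclei, and viability is the median across plates of treated-well over vehicle-well nuclei. Acceptance needed control CV below 25% and at least one doubling.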

Compound in the next assay: Cc1ccc(C(=O)N(CCCN)[C@@H](c2nc3cc(Cl)ccc3c(=O)n2Cc2ccccc2)C(C)C)cc1 [Ispinesib]
A digest of the protocol:
as §2

Regarding UMC-11, the relative viability was 0.547 with Ispinesib + Crizotinib (first compound 0.001 µM); 0.636 in the assay with Ispinesib + Crizotinib (first compound 0.003162 µM); 0.394 with Ispinesib + Crizotinib (first compound 0.01 µM); 0.192 in the assay with Ispinesib + Crizotinib (first compound 0.03162 µM); 0.376 with Ispinesib + Crizotinib (first compound 0.1 µM); 0.698 with Linsitinib + Crizotinib (first compound 0.01 µM). The relative viability came to 0.448 with Linsitinib + Crizotinib (first compound 0.03162 µM); 0.642 with Linsitinib + Crizotinib (first compound 0.1 µM); 0.549 with Linsitinib + Crizotinib (first compound 1 µM); 0.975 with Linsitinib (0.01 µM); 0.854 in the assay with Linsitinib (0.03162 µM); 1.02 with Linsitinib (0.1 µM). Also, the relative viability in the assay with Linsitinib (0.3162 µM) is 0.546; with Linsitinib (1 µM), 0.875; with Linsitinib (1 µM, anchor plate) it was 1.01; with Ispinesib (0.001 µM), 1.01; in the assay with Ispinesib (0.003162 µM), 1.02; with Ispinesib (0.01 µM), 0.835. Further, the relative viability with Ispinesib (0.03162 µM) is 0.32; with Ispinesib (0.1 µM) it was 0.264.

For the origin of these results see the supplement of paper PMC10307832.
